Experimental data: ChEMBL document CHEMBL5608246, “Membrane-Targeting Amphiphilic Honokiol Derivatives Containing an Oxazole Moiety as Potential Antibacterials against Methicillin-Resistant Staphylococcus aureus” (J Med Chem, 2024)
In brackets after ≈: the same amount, converted by molar mass. One block for each molecule: values may come before it.

Tests used:
[1] = tested on: Staphylococcus aureus; test: Antibacterial activity against methicillin resistant Staphylococcus aureus M12 incubated for 16 to 18 hrs by broth dilution method; assay type: functional; settings: time 16-18 hrs
[2] = tested on: Staphylococcus aureus; test: Antibacterial activity against methicillin resistant Staphylococcus aureus M16 incubated for 16 to 18 hrs by broth dilution method; assay type: functional; settings: time 16-18 hrs
[3] = tested on: Staphylococcus aureus; test: Antibacterial activity against methicillin resistant Staphylococcus aureus M20 incubated for 16 to 18 hrs by broth dilution method; assay type: functional; settings: time 16-18 hrs
[4] = tested on: Staphylococcus aureus; test: Antibacterial activity against methicillin resistant Staphylococcus aureus M21 incubated for 16 to 18 hrs by broth dilution method; assay type: functional; settings: time 16-18 hrs
[5] = tested on: Staphylococcus aureus; test: Antibacterial activity against methicillin resistant Staphylococcus aureus M11 incubated for 16 to 18 hrs by broth dilution method; assay type: functional; settings: time 16-18 hrs
[6] = tested on: Escherichia coli; test: Antibacterial activity against Escherichia coli ATCC 25922 incubated for 16 to 18 hrs by broth dilution method; assay type: functional; settings: time 16-18 hrs
[7] = tested on: Staphylococcus aureus; test: Antibacterial activity against methicillin resistant Staphylococcus aureus M13 incubated for 16 to 18 hrs by broth dilution method; assay type: functional; settings: time 16-18 hrs
[8] = tested on: Staphylococcus aureus; test: Antibacterial activity against methicillin resistant Staphylococcus aureus M23 incubated for 16 to 18 hrs by broth dilution method; assay type: functional; settings: time 16-18 hrs
[9] = tested on: Staphylococcus aureus; test: Antibacterial activity against methicillin resistant Staphylococcus aureus N315 incubated for 16 to 18 hrs by broth dilution method; assay type: functional; settings: time 16-18 hrs
[10] = Selectivity index, ratio of HC50 for sheep RBC to MIC for Staphylococcus aureus ATCC 29213; assay type: toxicity; settings: sheep red blood cells, read-out: Selectivity Index
[11] = tested on: Staphylococcus aureus; test: Antibacterial activity against Staphylococcus aureus ATCC 29213 incubated for 16 to 18 hrs by broth dilution method; assay type: functional; settings: time 16-18 hrs
[12] = tested on: Staphylococcus aureus; test: Antibacterial activity against methicillin resistant Staphylococcus aureus M22 incubated for 16 to 18 hrs by broth dilution method; assay type: functional; settings: time 16-18 hrs
[13] = tested on: Staphylococcus aureus; test: Antibacterial activity against methicillin resistant Staphylococcus aureus M14 incubated for 16 to 18 hrs by broth dilution method; assay type: functional; settings: time 16-18 hrs
[14] = tested on: Staphylococcus aureus; test: Antibacterial activity against methicillin resistant Staphylococcus aureus M17 incubated for 16 to 18 hrs by broth dilution method; assay type: functional; settings: time 16-18 hrs
[15] = Hemolytic activity in sheep RBC incubated for 1 hr; assay type: toxicity, cell-based, Ovis aries, Erythrocyte; settings: sheep red blood cells (erythrocytes)

Structure (SMILES): C=CCc1cc(-c2ccc(OCCC[N+](C)(C)CC(=O)NCCCC)c(CC=C)c2)c2oc(-c3ccc(F)c(Br)c3)nc2c1.[Br-]
MIC [1]: 16 µg/mL | MIC [2]: 16 µg/mL | MIC [3]: 8 µg/mL | MIC [4]: 8 µg/mL | MIC [5]: 8 µg/mL | MIC [6]: 128 µg/mL | MIC [7]: 8 µg/mL | MIC [8]: 16 µg/mL | MIC [9]: 128 µg/mL | selectivity ratio [10]: 0.4 | MIC [11]: 128 µg/mL | MIC [12]: 32 µg/mL | MIC [13]: 8 µg/mL | MIC [14]: 16 µg/mL | HC50 at 1 h [15]: 48.5 µg/mL

Structure (SMILES): C=CCc1cc(-c2ccc(OCCC[N+](C)(C)CC(=O)NCCCC)c(CC=C)c2)c2oc(-c3ccc(Cl)c(Cl)c3)nc2c1.[Br-]
MIC [1]: 32 µg/mL | MIC [2]: 32 µg/mL | MIC [3]: 32 µg/mL | MIC [4]: 32 µg/mL | MIC [5]: 64 µg/mL | MIC [6]: > 128 µg/mL | MIC [7]: 16 µg/mL | MIC [8]: 64 µg/mL | MIC [9]: 128 µg/mL | selectivity ratio [10]: 0.7 | MIC [11]: 128 µg/mL | MIC [12]: 64 µg/mL | MIC [13]: 32 µg/mL | MIC [14]: 128 µg/mL | HC50 at 1 h [15]: 87.6 µg/mL

Structure (SMILES): C=CCc1cc(-c2ccc(OCCC[N+](C)(C)CC(=O)NCCCC)c(CC=C)c2)c2oc(-c3cc(Br)ccc3F)nc2c1.[Br-]
MIC [1]: 8 µg/mL | MIC [2]: 8 µg/mL | MIC [3]: 4 µg/mL | MIC [4]: 4 µg/mL | MIC [5]: 8 µg/mL | MIC [6]: 128 µg/mL | MIC [7]: 4 µg/mL | MIC [8]: 8 µg/mL | MIC [9]: 32 µg/mL | selectivity ratio [10]: > 5 | MIC [11]: 64 µg/mL | MIC [12]: 8 µg/mL | MIC [13]: 4 µg/mL | MIC [14]: 4 µg/mL | HC50 at 1 h [15]: > 320 µg/mL

MIC [6]: 0.063 µg/mL (≈ 0.164 µM)
Structure (SMILES): C[C@@H](O)[C@H]1C(=O)N2C(C(=O)O)=C(S[C@@H]3CN[C@H](C(=O)N(C)C)C3)[C@H](C)[C@H]12 [MEROPENEM]

Structure (SMILES): C=CCc1cc(-c2ccc(OCCC[N+](C)(C)CC(=O)NCCCC)c(CC=C)c2)c2oc(-c3ccc(Cl)c(Br)c3)nc2c1.[Br-]
MIC [1]: 128 µg/mL | MIC [2]: 64 µg/mL | MIC [3]: 128 µg/mL | MIC [4]: 128 µg/mL | MIC [5]: > 128 µg/mL | MIC [6]: > 128 µg/mL | MIC [7]: 32 µg/mL | MIC [8]: 128 µg/mL | MIC [9]: 128 µg/mL | selectivity ratio [10]: > 2.5 | MIC [11]: 128 µg/mL | MIC [12]: 128 µg/mL | MIC [13]: 64 µg/mL | MIC [14]: 128 µg/mL | HC50 at 1 h [15]: > 320 µg/mL

Structure (SMILES): C=CCc1ccc(O)c(-c2ccc(O)c(CC=C)c2)c1 [HONOKIOL]
MIC [1]: 8 µg/mL (≈ 30 µM) | MIC [2]: 16 µg/mL (≈ 60.1 µM) | MIC [3]: 8 µg/mL (≈ 30 µM) | MIC [4]: 16 µg/mL (≈ 60.1 µM) | MIC [5]: 16 µg/mL (≈ 60.1 µM) | MIC [6]: > 128 µg/mL | MIC [7]: 16 µg/mL (≈ 60.1 µM) | MIC [8]: 16 µg/mL (≈ 60.1 µM) | MIC [9]: 8 µg/mL (≈ 30 µM) | selectivity ratio [10]: > 1.25 | MIC [11]: 64 µg/mL (≈ 240 µM) | MIC [12]: 16 µg/mL (≈ 60.1 µM) | MIC [13]: 16 µg/mL (≈ 60.1 µM) | MIC [14]: 16 µg/mL (≈ 60.1 µM) | HC50 at 1 h [15]: > 80 µg/mL

Structure (SMILES): C=CCc1cc(-c2ccc(OCCC[N+](C)(C)CC(=O)NCCCC)c(CC=C)c2)c2oc(-c3ccccc3Cl)nc2c1.[Br-]
MIC [1]: 64 µg/mL | MIC [2]: 32 µg/mL | MIC [3]: 64 µg/mL | MIC [4]: 128 µg/mL | MIC [5]: 128 µg/mL | MIC [6]: 128 µg/mL | MIC [7]: 32 µg/mL | MIC [8]: 32 µg/mL | MIC [9]: 64 µg/mL | selectivity ratio [10]: > 40 | MIC [11]: 16 µg/mL | MIC [12]: 32 µg/mL | MIC [13]: 64 µg/mL | MIC [14]: 128 µg/mL | HC50 at 1 h [15]: > 640 µg/mL

Structure (SMILES): C=CCc1cc(-c2ccc(OCCC[N+](C)(C)CC(=O)NCCCC)c(CC=C)c2)c2oc(-c3ccc(F)cc3Cl)nc2c1.[Br-]
MIC [1]: 4 µg/mL | MIC [2]: 4 µg/mL | MIC [3]: 4 µg/mL | MIC [4]: 4 µg/mL | MIC [5]: 4 µg/mL | MIC [6]: > 128 µg/mL | MIC [7]: 4 µg/mL | MIC [8]: 4 µg/mL | MIC [9]: 8 µg/mL | selectivity ratio [10]: 27.3 | MIC [11]: 8 µg/mL | MIC [12]: 4 µg/mL | MIC [13]: 4 µg/mL | MIC [14]: 4 µg/mL | HC50 at 1 h [15]: 219 µg/mL

Structure (SMILES): C=CCc1cc(-c2ccc(OCCC[N+](C)(C)CC(=O)NCCCC)c(CC=C)c2)c2oc(-c3cc(F)c(F)c(F)c3)nc2c1.[Br-]
MIC [1]: 128 µg/mL | MIC [2]: 32 µg/mL | MIC [3]: 64 µg/mL | MIC [4]: 32 µg/mL | MIC [5]: 32 µg/mL | MIC [6]: > 128 µg/mL | MIC [7]: 32 µg/mL | MIC [8]: 32 µg/mL | MIC [9]: 64 µg/mL | selectivity ratio [10]: < 0.5 | MIC [11]: > 128 µg/mL | MIC [12]: 64 µg/mL | MIC [13]: 32 µg/mL | MIC [14]: 64 µg/mL | HC50 at 1 h [15]: 64.4 µg/mL
